Earlier results as cited in patent publication US6464987B1, “Pharmaceutical compositions capable of being gelled” (UCB, S.A., priority 1998, dated 2002).
Read-outs that look alike come from different tables or passages of the source.

How the values were obtained:
[1] = mouse, in vivo
humans = settings: PLA-GA implants or PLA-GA microparticles

Row | bioavailability ([1]; im) [%] | bioavailability ([1]; sc) [%] | Compound | level of testosterone in the blood (humans)
1 | 31.4 | 67.5 | NC(=O)[C@@H]1CCCN1C(=O)[C@H](Cc1cnc[nH]1)NC(=O)[C@@H]1CCC(=O)N1 [TRH, thyrotropin releasing hormone] | –
2 | – | – | CC(C)C[C@H](NC(=O)[C@@H](COC(C)(C)C)NC(=O)[C@H](Cc1ccc(O)cc1)NC(=O)[C@H](CO)NC(=O)[C@H](Cc1c[nH]c2ccccc12)NC(=O)[C@H](Cc1cnc[nH]1)NC(=O)[C@@H]1CCC(=O)N1)C(=O)N[C@@H](CCCNC(=N)N)C(=O)N1CCC[C@H]1C(=O)NNC(N)=O [gosereline] | very significant and lasting decrease
